Results reported in publication PMC4537050, “A long pentraxin-3-derived pentapeptide for the therapy of FGF8b-driven steroid hormone-regulated cancers” (Oncotarget, 2015).

Tests used:
[1] = system: S115 cells grafted onto the chick embryo CAM; assay: CAM assay with DHT-treated S115 cell grafts; type: in vivo; conditions: 2.5 × 10^4 cells/embryo; ARPCA 80 or 140 pmoles/embryo, ARPVA 140 pmoles/embryo; day 14
Method: (§1) Alginate plugs containing vehicle, FGF8b (4.5 pmoles/embryo), VEGF-A (4.5 pmoles/embryo) or S115 cells (2.5×10^4/embryo) in the absence or presence of ARPCA (80 or 140 pmoles/embryo) or ARPVA (140 pmoles/embryo) were placed on the CAM of fertilized white leghorn chicken eggs at day 11 of incubation. At day 14, newly formed blood microvessels converging toward the implant were counted by two observers in a double-blind fashion at 5x magnification under a stereomicroscope (STEMI-SR, x2/0.12; Zeiss) as described.

[2] = system: chick embryo chorioallantoic membrane (CAM); assay: Chick embryo CAM assay with growth factor alginate implants; type: in vivo; conditions: vessels counted at day 14
Method: as §1

[3] = target: T1, FGF10 (Homo sapiens, UniProt O15520); assay: SPR analysis of FGF/ARPCA interaction, FGF10; type: binding; conditions: immobilized FGF10
T1 sequence (O15520 38-208): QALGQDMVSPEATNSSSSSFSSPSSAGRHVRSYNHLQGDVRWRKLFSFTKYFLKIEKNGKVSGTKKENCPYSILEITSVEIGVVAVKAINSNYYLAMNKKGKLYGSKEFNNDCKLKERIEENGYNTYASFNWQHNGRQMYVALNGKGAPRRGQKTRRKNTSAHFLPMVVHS

[4] = system: TRAMP-C2 alginate plugs; assay: Murine s.c. alginate implant assay, TRAMP-C2 cells; type: in vivo, C57BL/6 male mice; conditions: i.p. at 100 mg/kg every other day
Method: Eightweek-old athymic Nu/Nu or C57BL/6 male mice were injected s.c. with 450 μl of 3% (w/v) sodium alginate solution (alginic acid dissolved in LPS-free PBS) containing 5×10^6 S115 or 8×10^6 TRAMP-C2 cells, respectively. Mice were treated i.p. with ARPCA or ARPVA (100 mg/kg) on day 7, 9, 11 and 13 after implant. On day 14, alginate gels were harvested, weighted, embedded in OCT-compound and immediately frozen to be processed for histological analysis. For immunofluorescence stainings, sections (5 μm thick) were obtained with a cryostat microtome, air dried and fixed with acetone (for 5 min at 4°C). After blocking with 1% BSA (Bovine Serum Albumin) in PBS for 10 minutes, sections were incubated with primary antibodies, rabbit anti-FGFR1 (Santa Cruz Biotechnology), rabbit anti-phospho FGFR1 (Santa Cruz Biotechnology), Ki67 (Dako, Milano, Italy, EU) or CD31 (BD Biosciences Pharmingen, San Diego, CA, USA). After washing with PBS containing 0.05% Tween 20, sections were incubated with the appropriate Alexa Fluor 488 or Alexa Fluor 594-conjugated secondary antibody (Invitrogen). After mounting in a drop of anti-bleaching mounting medium containing DAPI (Vectashield, Vector Laboratories, Burlingame, CA, USA), sections were examined under a Zeiss Fluorescence Axiovert 200M microscope (Carl Zeiss).

[5] = target: T2, FGF23 (Homo sapiens, UniProt Q9GZV9); assay: SPR analysis of ARPCA on immobilized FGF23; type: binding; conditions: data not shown
T2 sequence (Q9GZV9 25-251): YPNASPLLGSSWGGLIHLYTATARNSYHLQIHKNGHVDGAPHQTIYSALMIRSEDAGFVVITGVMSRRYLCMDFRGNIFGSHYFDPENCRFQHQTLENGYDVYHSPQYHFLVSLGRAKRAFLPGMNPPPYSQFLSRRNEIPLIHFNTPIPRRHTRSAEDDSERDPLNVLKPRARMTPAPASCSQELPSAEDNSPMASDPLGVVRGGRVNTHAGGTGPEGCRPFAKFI

[6] = system: S115 cells; assay: S115 cell proliferation assay; type: cell-based, mouse; conditions: 30 ng/ml FGF8b or 10 nM DHT, 48 h, viable cell counting
Method: HUVECs were seeded at 18000 cells/cm^2 in medium containing 2.5% FBS and stimulated with 30 ng/ml FGF8b in the absence or presence of increasing concentrations of ARPCA or ARPVA. S115 cells were seeded at 15000 cells/cm^2 in medium containing 4% hormone-deprived dextran-coated charcoal-stripped heat inactivated FBS, followed by 24 h serum starvation in 1:1 mixture of serum-free Ham's F12 and DMEM. Cells were stimulated for 48 h with 30 ng/ml FGF8b or 10 nM DHT in the presence or absence of different concentrations of ARPCA or ARPVA (as specified in the corresponding figures). Viable cell counts were obtained by the counting function of the MACSQuant® Analyzer (Miltenyi Biotec, Bergisch-Gladbach, Germany, EU).

[7] = mouse, in vivo, ip, 100 mg/kg
Method: (§2) Eight week-old C57BL/6 mice were treated i.p. with 100 mg/kg of ARPCA every other day for two weeks. During this period, animals were weighted for body weight variation analysis. At the end of treatment, whole blood and serum were harvested and analysed for blood components, biochemical serum parameters and circulating levels of FGF23. The serum levels of FGF23 were assessed by ELISA (Uscn Life Science Inc., Wuhan, PRC, Asia) according to manufacturer's instructions. Untreated mice were used as reference/control.

[8] = In vivo ARPCA toxicity studies
Method: as §2

[9] = target: T3, HSPG/FGF8b/FGFR1 ternary complexes (Homo sapiens, UniProt P55075); assay: HSPG/FGF8b/FGFR1 mediated cell-cell adhesion assay; type: cell-based; conditions: 30 ng/ml FGF8b, increasing peptide concentrations
T3 construct: purchased PeproTech; host or cells: FGF8b was added to A745-CHO-flg-1A-luc cells (FGFR1 IIIc transfected) on a glutaraldehyde-fixed CHO-K1 monolayer (endogenous HSPGs)
T3 sequence (P55075 23-215 isoform P55075-3 limits assumed): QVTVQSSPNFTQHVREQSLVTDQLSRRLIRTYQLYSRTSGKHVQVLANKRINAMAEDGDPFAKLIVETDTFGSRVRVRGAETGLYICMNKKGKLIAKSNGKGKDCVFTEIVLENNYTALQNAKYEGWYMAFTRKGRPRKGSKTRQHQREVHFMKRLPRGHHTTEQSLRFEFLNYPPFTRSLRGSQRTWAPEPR
Method: This assay was performed as described with minor modifications. Briefly, wild-type CHO-K1 cells were seeded in 24-well plates at 150000 cells/cm^2. After 24 h, cell monolayers were washed with PBS and incubated with 3% glutaraldehyde in PBS for 2 h at 4°C. Fixation was stopped with 0.1 M glycine and cells were washed extensively with PBS. Then, A745-CHO-flg-1A-luc cells (50000 cells/cm^2) were added to CHO-K1 monolayers in serum-free medium plus 10 mM EDTA with or without 30 ng/ml FGF8b in the absence or presence of increasing concentrations of the ARPCA or ARPVA peptides. After 2 h of incubation at 37°C, unattached cells were removed by washing twice with PBS, and A745-CHO-flg-1A-luc bound to the CHO-K1 monolayer were solubilized and luciferase activity was quantified. All experiments were performed in triplicate.

Ac-ARPCA-NH2 [ARPCA, Ac-ARPCA-NH2]
neovascular response elicited by DHT-pretreated S115 cells on the CAM [1]: abolished
angiogenic response elicited by FGF8b in the CAM ([2]; 4.5 pmoles FGF8b/plug, ARPCA 80 or 140 pmoles, ARPVA 140 pmoles): significantly reduced
angiogenic response elicited by VEGF-A in the CAM ([2]; 4.5 pmoles VEGF-A/plug): No inhibitory effect
Kd, FGF10 [3]: n.b.
CD31-positive tumor vascularization in TRAMP-C2 alginate plugs [4]: decrease
FGFR1 activation in TRAMP-C2 alginate plugs [4]: impaired FGFR1 activation
tumor cell proliferation rate (Ki67 immunostaining) in TRAMP-C2 alginate plugs [4]: decrease
interaction with immobilized FGF23 [5]: did not show any interaction
mitogenic response of S115 cells to FGF8b or DHT [6]: impairs the mitogenic response
systemic toxic effect in treated animals [7]: absence of any systemic toxic effect
body weight ([8]; i.p. 100 mg/kg every other day for two weeks): did not affect
hematologic parameters, blood serum components and FGF23 serum levels (in words) ([8]; long-term administration, i.p. 100 mg/kg every other day): did not affect
inhibitory activity on FGF8b-mediated cell-cell adhesion (in words) [9]: dose-dependent inhibitory activity
